PubChem BioAssay (NCI)
Values joined by “and” are separate entries in the source; they are usually repeats but may differ in a detail not shown here. Equal entries are not always repeated.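 Where inhibition never reached the appropriate level, the endpoint shown equals the highest concentration tested. Otherwise, values were interpolated linearly from a five-concentration, 48-hour dose response in 96-well plates. GI50: concentration for 50% inhibition of growth. TGI is the concentration that stops growth completely.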

What was measured:
Experiment in all cases: DTP human tumour cell line panel, 48 h
[1] = system: A549 NSCLC
[2] = system: COLO 205 colon
[3] = system: HOP-62 NSCLC
[4] = system: MALME-3M melanoma
[5] = system: MDA-MB-231 breast
[6] = system: OVCAR-5 ovarian
[7] = system: SK-MEL-28 melanoma
[8] = system: SN12C renal
[9] = system: TK-10 renal
[10] = system: HOP-92 NSCLC

Nc1nc2c(c3ncccc13)C(c1cccc(Cl)c1)Cc1ncccc1-2 (configuration not stated)
GI50 [1]: 3.08 µM
TGI [1]: > 100 µM
GI50 [2]: 1.53 µM
TGI [2]: 3.94 µM
GI50 [3]: 2.45 µM
TGI [3]: 18.1 µM
GI50 [4]: 15.2 µM
TGI [4]: 60.4 µM
GI50 [5]: 4.19 µM
TGI [5]: 23.7 µM
GI50 [6]: 6.42 µM
TGI [6]: > 100 µM
GI50 [7]: 8.17 µM
TGI [7]: 28.4 µM
GI50 [8]: 5.93 µM
TGI [8]: 44.5 µM
GI50 [9]: 8.11 µM
TGI [9]: 65.7 µM

C=C(CN1CCN(c2cccc(C(F)(F)F)c2)CC1)c1ccc(C(=O)Nc2ccccc2N)cc1
GI50 [1]: 1.48 µM
TGI [1]: > 27.3 µM
GI50 [2]: 3.45 µM
TGI [2]: > 23 µM
GI50 [3]: 0.696 µM
TGI [3]: 6.27 µM
GI50 [10]: 1.51 µM
TGI [10]: 17.8 µM
GI50 [5]: 0.941 µM
TGI [5]: 3.39 µM
GI50 [6]: 6.63 µM
TGI [6]: 26.4 µM
GI50 [7]: 3.4 µM
TGI [7]: > 27.2 µM
GI50 [8]: 2.19 µM
TGI [8]: 14.5 µM
GI50 [9]: 0.807 µM
TGI [9]: 5.31 µM

C=C(CN(CC(=C)C(=O)c1ccccc1)C(C)(C)C)C(=O)c1ccccc1
TGI [1]: > 77.7 µM
TGI [2]: 7.52 µM
TGI [10]: 15 µM
TGI [4]: 29.7 µM
TGI [6]: 34.3 µM
TGI [7]: 36.8 µM
TGI [8]: 32.5 µM
TGI [9]: 27 µM

Cc1ccc(NC(=O)CC(=O)n2nc(-c3ccccc3)c(N=Nc3ccc(Cl)cc3)c2-c2ccccc2)cc1
TGI [1]: 64.4 µM
TGI [2]: > 100 µM
TGI [3]: > 100 µM
TGI [10]: 89 µM
TGI [4]: > 100 µM
TGI [6]: > 100 µM
TGI [7]: > 100 µM
TGI [8]: > 100 µM
TGI [9]: 72 µM

CC12O[C@H](c3ccccc3)[C@H](c3ccccc3)N1C(=O)C1(C(=O)OCc3ccccc3)CC12 (some centres not stated)
TGI [1]: > 100 µM
TGI [2]: > 100 µM
TGI [3]: > 100 µM
TGI [10]: > 100 µM
TGI [4]: > 100 µM
TGI [6]: > 100 µM
TGI [8]: > 100 µM

NC1=NC(c2ccccc2)N=C(Nc2ccccc2)N1 (configuration not stated)
GI50 [1]: > 100 µM
TGI [1]: > 100 µM
GI50 [2]: 97.9 µM
TGI [2]: > 100 µM
GI50 [3]: > 100 µM
TGI [3]: > 100 µM
GI50 [10]: > 100 µM
TGI [10]: > 100 µM
GI50 [5]: > 100 µM
TGI [5]: > 100 µM
GI50 [6]: > 100 µM
TGI [6]: > 100 µM
GI50 [7]: > 100 µM
TGI [7]: > 100 µM
GI50 [8]: > 100 µM
TGI [8]: > 100 µM
GI50 [9]: > 100 µM
TGI [9]: > 100 µM

FC(F)(F)c1ccc(C=NC23CC4CC(CC(C4)C2)C3)cc1
TGI [1]: > 100 µM
TGI [2]: > 100 µM
TGI [3]: > 100 µM
TGI [10]: > 100 µM
TGI [4]: > 100 µM
TGI [6]: > 100 µM
TGI [7]: > 100 µM
TGI [8]: > 100 µM
TGI [9]: > 100 µM

CCc1cccc(C(C)C)c1NC(=O)C(=O)C(C(=O)C(=O)OC)c1nc2ccccc2[nH]c1=O (configuration not stated)
TGI [1]: > 100 µM
TGI [2]: > 100 µM
TGI [10]: > 100 µM
TGI [4]: > 100 µM
TGI [6]: > 100 µM
TGI [7]: > 100 µM
TGI [8]: > 100 µM
TGI [9]: > 100 µM

CO[C@H]1[C@H](O)[C@H](O[C@H]2CC[C@@]3(C)[C@H](CC[C@@H]4[C@@H]3CC[C@]3(C)[C@@H](C5=CC(=O)OC5)CC[C@]43O)C2)O[C@@H](C)[C@@H]1O
TGI [1]: 0.00078 µM
TGI [2]: 0.00509 µM and 0.0316 µM
TGI [10]: 0.00571 µM and 0.0336 µM
TGI [4]: 0.000721 µM
TGI [5]: 0.00907 µM
TGI [7]: 0.00622 µM and < 0.0227 µM
TGI [8]: 0.00112 µM and < 0.0107 µM
TGI [9]: 0.00345 µM

N/N=C1\c2ccccc2C2/C(=N\N)c3ccccc3C12 (configuration not stated)
TGI [1]: > 100 µM
TGI [2]: > 100 µM
TGI [10]: > 100 µM
TGI [4]: > 100 µM
TGI [6]: > 100 µM
TGI [7]: > 100 µM
TGI [8]: > 100 µM
TGI [9]: > 100 µM

C=CCNC1=C(C(=O)OCC)C(=O)CO1
TGI [1]: > 100 µM
TGI [10]: > 100 µM
TGI [4]: > 100 µM
TGI [6]: > 100 µM
TGI [7]: > 100 µM
TGI [8]: > 100 µM
TGI [9]: > 100 µM

CCC(C(=O)[O-])C(=O)[O-].CCC(C(=O)[O-])C(=O)[O-].N.N.NCCCCCN.[Pt+4].[Pt+4]
GI50 [1]: > 100 µM
TGI [1]: > 100 µM
GI50 [2]: 47.8 µM
TGI [2]: > 100 µM
GI50 [3]: > 100 µM
TGI [3]: > 100 µM
GI50 [10]: > 100 µM
TGI [10]: > 100 µM
GI50 [4]: > 100 µM
TGI [4]: > 100 µM
GI50 [6]: > 100 µM
TGI [6]: > 100 µM
GI50 [7]: > 100 µM
TGI [7]: > 100 µM
GI50 [8]: 15 µM
TGI [8]: 87.3 µM
GI50 [9]: > 100 µM
TGI [9]: > 100 µM

O=S(=O)(NC(=S)Nc1ccccc1)c1ccc(N2N=C3c4ccccc4CC3C2c2cccs2)cc1 (configuration not stated)
GI50 [1]: 15.7 µM
TGI [1]: > 100 µM
GI50 [2]: 41.9 µM
TGI [2]: > 100 µM
GI50 [3]: 20.3 µM
TGI [3]: 45.7 µM
GI50 [10]: 24.9 µM
TGI [10]: 71.7 µM
GI50 [5]: 24.8 µM
TGI [5]: 62.3 µM
GI50 [6]: 17.9 µM
TGI [6]: 41.1 µM
GI50 [7]: 53.8 µM
TGI [7]: > 100 µM
GI50 [8]: 21.4 µM
TGI [8]: 43.2 µM
GI50 [9]: 12.2 µM
TGI [9]: 39.7 µM

Cc1ccc(NS(=O)(=O)c2cc(C(C)(C)C)ccc2OCCOCCOCCOc2ccc(C(C)(C)C)cc2S(=O)(=O)Nc2ccc(C)cc2)cc1
TGI [1]: > 100 µM
TGI [2]: > 100 µM
TGI [3]: > 100 µM
TGI [10]: > 100 µM
TGI [4]: > 100 µM
TGI [6]: > 100 µM
TGI [7]: > 100 µM
TGI [8]: > 100 µM
TGI [9]: > 100 µM

Cc1ccc(S(=O)(=O)CNC(=S)CCCC(=S)NCS(=O)(=O)c2ccc(C)cc2)cc1
TGI [1]: > 100 µM
TGI [2]: > 100 µM
TGI [3]: > 100 µM
TGI [10]: 50.3 µM
TGI [4]: > 100 µM
TGI [6]: > 100 µM
TGI [8]: > 100 µM
TGI [9]: > 100 µM

O=C([O-])c1ccc2c(c1)-c1nc-2nc2[n-]c(nc3nc(nc4[n-]c(n1)c1ccc(C(=O)[O-])cc41)-c1cc(C(=O)[O-])ccc1-3)c1ccc(C(=O)[O-])cc21.[Fe+2]
GI50 [1]: > 50 µM
TGI [1]: > 50 µM
GI50 [2]: > 22.2 µM
TGI [2]: > 31.2 µM
GI50 [3]: > 50 µM
TGI [3]: > 50 µM
GI50 [10]: > 50 µM
TGI [10]: > 50 µM
GI50 [4]: > 50 µM
TGI [4]: > 50 µM
GI50 [6]: > 50 µM
TGI [6]: > 50 µM
GI50 [7]: > 50 µM
TGI [7]: > 50 µM
GI50 [8]: > 50 µM
TGI [8]: > 50 µM
GI50 [9]: > 50 µM
TGI [9]: > 50 µM

COC(=O)c1c2c(c(C)[n+]([O-])c1C)C(=O)C=C(NCc1cccc(OC)c1)C2=O
GI50 [2]: 0.293 µM
TGI [2]: 0.928 µM
GI50 [3]: 1.58 µM
TGI [3]: 3.39 µM
GI50 [10]: 1.99 µM
TGI [10]: 4.7 µM
GI50 [4]: 0.15 µM
TGI [4]: 0.341 µM
GI50 [5]: 0.358 µM
TGI [5]: 4.83 µM
GI50 [6]: 1.31 µM
TGI [6]: 2.77 µM
GI50 [8]: 0.323 µM
TGI [8]: 1.24 µM

Cc1c(O)c(=O)ccn1C1OC(CO)C(O)C1O (configuration not stated)
TGI [1]: > 100 µM
TGI [2]: > 100 µM
TGI [3]: > 100 µM
TGI [10]: > 100 µM
TGI [4]: > 100 µM
TGI [6]: > 100 µM
TGI [7]: > 100 µM
TGI [8]: > 100 µM
TGI [9]: > 100 µM
